In patent US20090118274A1, “MONOCYCLIC AMINOPROPYL TETRAHYDRO-PYRAZOLO-PYRIDINE MODULATORS OF CATHEPSIN S” (priority 2007, published 2009):

Biological target: T1, Recombinant human cathepsin S (CatS) (Homo sapiens, UniProt P25774)
T1 construct: made in house
Assay: Recombinant human cathepsin S (CatS) fluorogenic substrate inhibition assay
Type: biochemical
Conditions: average of results obtained; substrate Z-Valine-Valine-Arginine-AMC 10 μM, pH 5.0; read-out: CatS IC50
Experimental: Recombinant human cathepsin S (CatS) was expressed in the baculovirus system and purified in one step with a thiopropyl-sepharose column. […] The assay is run in 150 mM sodium acetate pH 5.0 containing 1.5 mM DTT and 150 mM NaCl. […] Measurements are taken every min for 20 min. The rate is calculated from the slope of the increase in fluorescence and the percent inhibition is calculated from this.

T1 sequence (P25774 115-331): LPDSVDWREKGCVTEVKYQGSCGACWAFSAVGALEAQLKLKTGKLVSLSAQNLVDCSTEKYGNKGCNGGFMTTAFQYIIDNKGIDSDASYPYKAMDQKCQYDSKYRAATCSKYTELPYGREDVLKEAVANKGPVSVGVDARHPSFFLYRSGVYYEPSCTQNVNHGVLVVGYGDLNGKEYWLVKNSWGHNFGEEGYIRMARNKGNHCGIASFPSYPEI

| IC50 | SMILES |
| --- | --- |
| 0.05 µM | CC(=O)NC1CCN(CC(O)Cn2nc(-c3ccc(C(F)(F)F)c(CNC(=O)CC(C)C)c3)c3c2CCN(S(C)(=O)=O)C3)CC1 (centres unmarked) [Example 250, N-(5-{1-[3-(4-Acetylamino-piperidin-1-yl)-2-hydroxy-propyl]-5-methanesulfonyl-4,5,6,7-tetrahydro-1H-pyrazolo[4,3-c]pyridin-3-yl}-2-trifluoromethyl-benzyl)-3-methyl-butyramide] |
| 16.6 µM | CS(=O)(=O)N1CCc2c(c(-c3ccc(C(F)(F)F)c(CNc4ncccn4)c3)nn2CC(O)CN2CCCC2)C1 (centres unmarked) [Example 65, 1-{5-Methanesulfonyl-3-[3-(pyrimidin-2-ylaminomethyl)-4-trifluoromethyl-phenyl]-4,5,6,7-tetrahydro-pyrazolo[4,3-c]pyridin-1-yl}-3-pyrrolidin-1-yl-propan-2-ol] |
| 0.36 µM | CN(C)C1CCN(CC(O)Cn2nc(-c3ccc(C(F)(F)F)c(CNC(=O)c4ccc(F)cc4)c3)c3c2CCN(S(C)(=O)=O)C3)C1 (centres unmarked) [Example 26, N-(5-{1-[3-(3-Dimethylamino-pyrrolidin-1-yl)-2-hydroxy-propyl]-5-methanesulfonyl-4,5,6,7-tetrahydro-1H-pyrazolo[4,3-c]pyridin-3-yl}-2-trifluoromethyl-benzyl)-4-fluoro-benzamide] |
| 0.9 µM | CS(=O)(=O)N1CCc2c(c(-c3ccc(C(F)(F)F)c(CNC(=O)c4ccc(F)cc4)c3)nn2CC(O)CN2CCNCC2)C1 (centres unmarked) [Example 236, 4-Fluoro-N-{5-[1-(2-hydroxy-3-piperazin-1-yl-propyl)-5-methanesulfonyl-4,5,6,7-tetrahydro-1H-pyrazolo[4,3-c]pyridin-3-yl]-2-trifluoromethyl-benzyl}-benzamide] |
| 0.17 µM | CS(=O)(=O)N1CCc2c(c(-c3ccc(C(F)(F)F)c(CNC(=O)c4ccc(F)cc4)c3)nn2CC(O)CN2CCC(O)CC2)C1 (centres unmarked) [Example 25, 4-Fluoro-N-(5-{1-[2-hydroxy-3-(4-hydroxy-piperidin-1-yl)-propyl]-5-methanesulfonyl-4,5,6,7-tetrahydro-1H-pyrazolo[4,3-c]pyridin-3-yl}-2-trifluoromethyl-benzyl)-benzamide] |
| 4.9 µM | CS(=O)(=O)N1CCc2c(c(-c3ccc(C(F)(F)F)c(CNS(=O)(=O)c4ccc(F)cc4)c3)nn2CC(O)CN2CCCC2)C1 (centres unmarked) [Example 194, 4-Fluoro-N-{5-[1-(2-hydroxy-3-pyrrolidin-1-yl-propyl)-5-methanesulfonyl-4,5,6,7-tetrahydro-1H-pyrazolo[4,3-c]pyridin-3-yl]-2-trifluoromethyl-benzyl}-benzenesulfonamide] |
| 0.19 µM | CS(=O)(=O)N1CCc2c(c(-c3ccc(C(F)(F)F)c(CNC(=O)c4ccc(F)c(Cl)c4)c3)nn2CC(O)CN2CCCC2)C1 (centres unmarked) [Example 61, 3-Chloro-4-fluoro-N-{5-[1-(2-hydroxy-3-pyrrolidin-1-yl-propyl)-5-methanesulfonyl-4,5,6,7-tetrahydro-1H-pyrazolo[4,3-c]pyridin-3-yl]-2-trifluoromethyl-benzyl}-benzamide] |
| 0.17 µM | CC(=O)NC1CCN(CC(O)Cn2nc(-c3ccc(C(F)(F)F)c(CNC(=O)c4ccc(F)cc4)c3)c3c2CCN(S(C)(=O)=O)C3)C1 (centres unmarked) [Example 93, N-(5-{1-[3-(3-Acetylamino-pyrrolidin-1-yl)-2-hydroxy-propyl]-5-methanesulfonyl-4,5,6,7-tetrahydro-1H-pyrazolo[4,3-c]pyridin-3-yl}-2-trifluoromethyl-benzyl)-4-fluoro-benzamide] |
| 0.09 µM | CS(=O)(=O)N1CCc2c(c(-c3ccc(Cl)c(CNC(=O)c4ccc(F)cc4)c3)nn2CC(O)CN2CCC3(CCNC3=O)CC2)C1 (centres unmarked) [Example 11, N-(2-Chloro-5-{1-[2-hydroxy-3-(1-oxo-2,8-diaza-spiro[4.5]dec-8-yl)-propyl]-5-methanesulfonyl-4,5,6,7-tetrahydro-1H-pyrazolo[4,3-c]pyridin-3-yl}-benzyl)-4-fluoro-benzamide] |
| 0.16 µM | CC(C)CC(=O)NCc1cc(-c2nn(CC(O)CN3CCC(NS(C)(=O)=O)CC3)c3c2CN(S(C)(=O)=O)CC3)ccc1C(F)(F)F (centres unmarked) [Example 255, N-(5-{1-[2-Hydroxy-3-(4-methanesulfonylamino-piperidin-1-yl)-propyl]-5-methanesulfonyl-4,5,6,7-tetrahydro-1H-pyrazolo[4,3-c]pyridin-3-yl}-2-trifluoromethyl-benzyl)-3-methyl-butyramide] |
| 0.27 µM | CC(C)=CC(=O)NCc1cc(-c2nn(CC(O)CN3CCC(O)C3)c3c2CN(S(C)(=O)=O)CC3)ccc1C(F)(F)F (centres unmarked) [Example 32, 3-Methyl-but-2-enoic acid 5-{1-[2-hydroxy-3-(3-hydroxy-pyrrolidin-1-yl)-propyl]-5-methanesulfonyl-4,5,6,7-tetrahydro-1H-pyrazolo[4,3-c]pyridin-3-yl}-2-trifluoromethyl-benzylamide] |
| 0.32 µM | CS(=O)(=O)N1CCc2c(c(-c3ccc(C(F)(F)F)c(CNC(=O)C4CCCCCC4)c3)nn2CC(O)CN2CCCC2)C1 (centres unmarked) [Example 160, Cycloheptanecarboxylic acid 5-[1-(2-hydroxy-3-pyrrolidin-1-yl-propyl)-5-methanesulfonyl-4,5,6,7-tetrahydro-1H-pyrazolo[4,3-c]pyridin-3-yl]-2-trifluoromethyl-benzylamide] |
| 1.32 µM | CS(=O)(=O)N1CCc2c(c(-c3ccc(Cl)c(COC(=O)c4ccc(F)cc4)c3)nn2CCCN2CCCC2)C1 [Example 3, 4-Fluoro-benzoic acid 2-chloro-5-[5-methanesulfonyl-1-(3-pyrrolidin-1-yl-propyl)-4,5,6,7-tetrahydro-1H-pyrazolo[4,3-c]pyridin-3-yl]-benzyl ester] |
| 0.36 µM | CC(C)CC(=O)NCc1cc(-c2nn(CC(O)CN3CCC(NC(=O)C(F)(F)F)C3)c3c2CN(S(C)(=O)=O)CC3)ccc1C(F)(F)F (centres unmarked) [Example 280, N-[5-(1-{2-Hydroxy-3-[3-(2,2,2-trifluoro-acetylamino)-pyrrolidin-1-yl]-propyl}-5-methanesulfonyl-4,5,6,7-tetrahydro-1H-pyrazolo[4,3-c]pyridin-3-yl)-2-trifluoromethyl-benzyl]-3-methyl-butyramide] |
| 0.73 µM | CS(=O)(=O)N1CCc2c(c(-c3ccc(C(F)(F)F)c(CNC(=O)c4ccc(Cl)cc4)c3)nn2CC(O)CN2CCCC2)C1 (centres unmarked) [Example 224, 4-Chloro-N-{5-[1-(2-hydroxy-3-pyrrolidin-1-yl-propyl)-5-methanesulfonyl-4,5,6,7-tetrahydro-1H-pyrazolo[4,3-c]pyridin-3-yl]-2-trifluoromethyl-benzyl}-benzamide] |
| 0.56 µM | CS(=O)(=O)N1CCc2c(c(-c3ccc(Cl)c(CNC(=O)c4ccccc4)c3)nn2CC(O)CN2CCCCCC2)C1 (centres unmarked) [Example 170, N-{5-[1-(3-Azepan-1-yl-2-hydroxy-propyl)-5-methanesulfonyl-4,5,6,7-tetrahydro-1H-pyrazolo[4,3-c]pyridin-3-yl]-2-chloro-benzyl}-benzamide] |
| 0.75 µM | CS(=O)(=O)N1CCc2c(c(-c3ccc(C(F)(F)F)c(CNC(=O)c4ccc(C(F)(F)F)cc4)c3)nn2CC(O)CN2CCCC2)C1 (centres unmarked) [Example 225, N-{5-[1-(2-Hydroxy-3-pyrrolidin-1-yl-propyl)-5-methanesulfonyl-4,5,6,7-tetrahydro-1H-pyrazolo[4,3-c]pyridin-3-yl]-2-trifluoromethyl-benzyl]-4-trifluoromethyl-benzamide] |
| 0.11 µM | CS(=O)(=O)N1CCc2c(c(-c3ccc(C(F)(F)F)c(CNC(=O)c4ccccc4)c3)nn2CCCN2CCC3(CCNC3=O)CC2)C1 [Example 144, N-(5-{5-Methanesulfonyl-1-[3-(1-oxo-2,8-diaza-spiro[4.5]dec-8-yl)-propyl]-4,5,6,7-tetrahydro-1H-pyrazolo[4,3-c]pyridin-3-yl}-2-trifluoromethyl-benzyl)-benzamide] |
| 0.1 µM | CC1CCN(CC(O)Cn2nc(-c3ccc(C(F)(F)F)c(CNC(=O)c4ccc(F)cc4)c3)c3c2CCN(S(C)(=O)=O)C3)CC1 (centres unmarked) [Example 22, 4-Fluoro-N-(5-{1-[2-hydroxy-3-(4-methyl-piperidin-1-yl)-propyl]-5-methanesulfonyl-4,5,6,7-tetrahydro-1H-pyrazolo[4,3-c]pyridin-3-yl}-2-trifluoromethyl-benzyl)-benzamide] |
| 0.4 µM | CC(C)N1CCN(CC(O)Cn2nc(-c3ccc(C(F)(F)F)c(CNC(=O)c4ccc(F)cc4)c3)c3c2CCN(S(C)(=O)=O)C3)CC1 (centres unmarked) [Example 20, 4-Fluoro-N-(5-{1-[2-hydroxy-3-(4-isopropyl-piperazin-1-yl)-propyl]-5-methanesulfonyl-4,5,6,7-tetrahydro-1H-pyrazolo[4,3-c]pyridin-3-yl}-2-trifluoromethyl-benzyl)-benzamide] |
| 0.89 µM | CS(=O)(=O)N1CCc2c(c(-c3ccc(Cl)c(CNC(=O)c4ccncc4)c3)nn2CCCN2CCCC2)C1 [Example 235, N-{2-Chloro-5-[5-methanesulfonyl-1-(3-pyrrolidin-1-yl-propyl)-4,5,6,7-tetrahydro-1H-pyrazolo[4,3-c]pyridin-3-yl]-benzyl}-isonicotinamide] |
| 0.26 µM | CC(C)=CC(=O)NCc1cc(-c2nn(CC(O)CN3CCC(N(C)C)CC3)c3c2CN(S(C)(=O)=O)CC3)ccc1C(F)(F)F (centres unmarked) [Example 34, 3-Methyl-but-2-enoic acid 5-{1-[3-(4-dimethylamino-piperidin-1-yl)-2-hydroxy-propyl]-5-methanesulfonyl-4,5,6,7-tetrahydro-1H-pyrazolo[4,3-c]pyridin-3-yl}-2-trifluoromethyl-benzylamide] |
| 0.42 µM | CC(C)CC(=O)NCc1cc(-c2nn(CC(O)CN3CCC(N(C)C)CC3)c3c2CN(S(C)(=O)=O)CC3)ccc1C(F)(F)F (centres unmarked) [Example 247, N-(5-{1-[3-(4-Dimethylamino-piperidin-1-yl)-2-hydroxy-propyl]-5-methanesulfonyl-4,5,6,7-tetrahydro-1H-pyrazolo[4,3-c]pyridin-3-yl}-2-trifluoromethyl-benzyl)-3-methyl-butyramide] |
